Patent US20090042912A1, “DIPHENYLIMIDAZOLYL COMPOUNDS AS INHIBITORS OF beta-SECRETASE” (Wyeth, priority 2004, published 2009)
Where two headings read alike, the source gives them in different places.

Tests used:
[1] = target: T1, human BACE2 (Homo sapiens, UniProt Q9Y5Z0); experiment: Fluorescent kinetic assay for human recombinant BACE 2 (WABC-6 peptide substrate); format: biochemical; conditions: for IC50: 1.5 nM enzyme, 25 μM substrate, pH 4.5, room temperature; for inhibition at 25 µM: read-out: BACE2. % inhibition
T1 sequence (Q9Y5Z0 63-518): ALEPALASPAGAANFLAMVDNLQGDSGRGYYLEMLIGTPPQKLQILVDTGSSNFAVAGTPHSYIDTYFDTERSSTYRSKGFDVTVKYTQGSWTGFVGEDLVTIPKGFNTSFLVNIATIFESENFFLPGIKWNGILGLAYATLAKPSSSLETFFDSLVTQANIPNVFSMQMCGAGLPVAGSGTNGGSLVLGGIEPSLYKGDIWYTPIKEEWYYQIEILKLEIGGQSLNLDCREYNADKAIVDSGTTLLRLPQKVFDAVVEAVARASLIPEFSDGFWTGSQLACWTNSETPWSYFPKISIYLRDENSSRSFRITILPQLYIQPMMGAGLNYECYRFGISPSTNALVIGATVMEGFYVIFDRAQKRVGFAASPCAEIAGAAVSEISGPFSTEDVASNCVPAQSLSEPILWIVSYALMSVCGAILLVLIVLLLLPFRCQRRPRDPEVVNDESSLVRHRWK
Description: Fluorescent Kinetic Assay for Human Recombinant BACE 2
This assay is used to provide kinetic and selectivity parameters for the analyses of the tested compounds.
Temperature: room temperature.
Dilution and Mixing Steps: Total Reaction Volume.: 100 μL • 1.
Readings at λex 320 nm, λem 420 nm are taken every 40-sec for 30 min at room temperature and to determine the linear slope for substrate cleavage rate (vi).

[2] = target: human BACE1 (Homo sapiens, UniProt P56817); experiment: Fluorescent kinetic assay, inhibition of BACE1 (WABC-6 peptide substrate); format: biochemical; conditions: 10 nM enzyme, 25 μM substrate, pH 4.5, room temperature; read-out: IC50 (μM) BACE1.
human BACE1, sequence (P56817 46-501): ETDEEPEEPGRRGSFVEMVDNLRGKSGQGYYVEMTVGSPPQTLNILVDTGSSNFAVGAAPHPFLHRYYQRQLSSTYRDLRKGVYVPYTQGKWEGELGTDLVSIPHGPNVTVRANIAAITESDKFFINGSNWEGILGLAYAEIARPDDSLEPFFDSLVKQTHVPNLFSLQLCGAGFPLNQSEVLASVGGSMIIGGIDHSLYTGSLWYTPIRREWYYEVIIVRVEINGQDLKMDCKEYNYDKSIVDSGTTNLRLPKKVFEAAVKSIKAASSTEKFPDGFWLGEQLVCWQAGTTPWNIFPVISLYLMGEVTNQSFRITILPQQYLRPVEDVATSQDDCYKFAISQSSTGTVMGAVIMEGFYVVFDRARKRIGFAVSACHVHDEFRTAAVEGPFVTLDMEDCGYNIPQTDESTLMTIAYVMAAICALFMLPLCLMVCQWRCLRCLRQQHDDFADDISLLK
Description: Evaluation of the Enzyme Activity of Test Compounds and the Inhibition of hBACE1, MuBACE1 and hBACE2 by Test Compounds
The concentration is determined by absorbance at 354 nm using an extinction coefficient ε of 18172 M^−1cm^−1, The substrate stock is stored in small aliquots at −80° C. [Substrate Stock]=ABS^354 nm*10^6/18172 ([…])
Dilution and mixing steps: total reaction volume: 100 μL • 1. 2× inhibitor dilutions in buffer A (66.7 mM Na-Acetate, pH 4.5, 0.0667% CHAPS) are prepared, • 2. 4× enzyme dilution in buffer A (66.7 mM Na-Acetate, pH 4.5, 0.0667% CHAPS) are prepared, • 3. 100 μM substrate dilution in 1× PBS is prepared, • 4. 50 μL 2× Inhibitor and 25 μL 100 μM substrate are added to each well of 96-well plate (from DYNEX Technologies, VWR #: 11311-046), the immediately 25 μL 4× enzyme are added to the inhibitor and substrate mixer, the fluorescence readings are initiated.
Readings at λex 320 nm and λem 420 nm are taken every 40-sec for 30 min at room temperature to determine the linear slope for substrate cleavage rate (vi).

| IC50 [1] [µM] | melting point [°C] | IC50 [2] [µM] | inhibition at 25 µM ([1]; at 25 μM) [%] | inhibition at 15.5 µM ([1]; at 15.5 μM) [%] | SMILES | inhibition at 25 µM [1] [%] |
| --- | --- | --- | --- | --- | --- | --- |
| 0.54 | 112 to 116 | 0.04 |  |  | NC1=NC(c2ccc(OC(F)(F)F)cc2)(c2cccc(-c3cncc(Cl)c3)c2)C2=NCCCN12 (stereo not drawn) [Example 20, 8-[3-(5-chloropyridin-3-yl)phenyl]-8-[4-(trifluoromethoxy)phenyl]-2,3,4,8-tetrahydroimidazo[1,5-a]pyrimidin-6-amine] |  |
| 2.26 | 98 to 108 | 0.02 |  |  | NC1=NC(c2ccc(OC(F)F)cc2)(c2cccc(-c3cccnc3F)c2)C2=NCC3(CC3)CN12 (stereo not drawn) [Example 44, 8′-[4-(Difluoromethoxy)phenyl]-8′-[3-(2-fluoropyridin-3-yl)phenyl]-2′,8′-dihydrospiro[cyclopropane-1,3′-imidazo[1,5-a]pyrimidin]-6′-amine] |  |
| 3.22 | 112 to 118 | 0.08 |  |  | NC1=NC(c2ccc(OC(F)(F)F)cc2)(c2cccc(-c3cncc(F)c3)c2)C2=NCCCN12 (stereo not drawn) [Example 19, 8-[3-(5-fluoropyridin-3-yl)phenyl]-8-[4-(trifluoromethoxy)phenyl]-2,3,4,8-tetrahydroimidazo[1,5-a]pyrimidin-6-amine] |  |
| 0.55 | 96 to 107 | 0.01 |  |  | NC1=NC(c2ccc(OC(F)F)cc2)(c2cccc(-c3cccnc3F)c2)C2=NCC3(COC3)CN12 (stereo not drawn) [Example 46, 8-[4-(Difluoromethoxy)phenyl]-8-[3-(2-fluoropyridin-3-yl)phenyl]-2,8-dihydrospiro[imidazo[1,5-a]pyrimidine-3,3′-oxetan]-6-amine] |  |
|  | 122 | 0.12 | 42 |  | COc1ccc(C2(c3ccc(F)c(-c4cncnc4)c3)N=C(N)N3CCCN=C32)cc1 (stereo not drawn) [Example 23, 8-(4-fluoro-3-pyrimidin-5-ylphenyl)-8-(4-methoxyphenyl)-2,3,4,8-tetrahydroimidazo[1,5-a]pyrimidin-6-amine] |  |
| 1.15 | 220 to 226 | 0.01 |  |  | NC1=NC(c2ccc(OC(F)F)cc2)(c2cccc(-c3cccnc3F)c2)C2=NCC3(CCC3)CN12 (stereo not drawn) [Example 47, 8′-[4-(difluoromethoxy)phenyl]-8′-[3-(2-fluoropyridin-3-yl)phenyl]-2′,8′-dihydrospiro[cyclobutane-1,3′-imidazo[1,5-a]pyrimidin]-6′-amine] |  |
| 1.23 | 104 to 114 | 0.018 |  |  | NC1=NC(c2ccc(OC(F)F)cc2)(c2cccc(-c3cccnc3F)c2)C2=NCCCN12 (stereo not drawn) [Example 41, 8-(4-Difluoromethoxyphenyl)-8-[3-(2-fluoropyridin-3-yl)phenyl]-2,3,4,8-tetrahydroimidazo[1,5-a]pyrimidin-6-ylamine] |  |
|  | 95 to 105 | 0.093 |  | 47 | COCOc1ccc(C2(c3cccc(-c4cccnc4F)c3)N=C(N)N3CCCN=C32)cc1 (stereo not drawn) [Example 38, 8-[3-(2-Fluoro-pyridin-3-yl)-phenyl]-8-(4-methoxymethoxy-phenyl)-2,3,4,8-tetrahydro-imidazo[1,5-a]pyrimidin-6-ylamine] |  |
| 6.57 | 117 to 121 | 0.09 |  |  | COc1ccc(C2(c3cccc(-c4cccnc4F)c3)N=C(N)N3CCCN=C32)cc1 (stereo not drawn) [Example 21, 8-[3-(2-fluoropyridin-3-yl)phenyl]-8-(4-methoxyphenyl]-2,3,4,8-tetrahydroimidazo[1,5-a]pyrimidin-6-amine] |  |
| 9.87 | 202 to 208 | 0.083 |  |  | CCOc1ccc(C2(c3cccc(-c4cccnc4F)c3)N=C(N)N3CCCN=C32)cc1OCC (stereo not drawn) [Example 25] |  |
| 8.18 | 115 | 0.06 |  |  | COc1ccc(C2(c3ccc(F)c(-c4cccnc4F)c3)N=C(N)N3CCCN=C32)cc1 (stereo not drawn) [Example 24, 8-[4-fluoro-3-(2-fluoropyridin-3-yl)phenyl]-8-(4-methoxyphenyl)-2,3,4,8-tetrahydroimidazo[1,5-a]pyrimidin-6-amine] |  |

| SMILES | IC50 [1] [µM] | melting point [°C] | IC50 [2] [µM] | inhibition at 25 µM ([1]; at 25 μM) [%] | inhibition at 15.5 µM ([1]; at 15.5 μM) [%] | inhibition at 25 µM [1] [%] |
| --- | --- | --- | --- | --- | --- | --- |
| NC1=NC(c2ccc(OC(F)(F)F)cc2)(c2ccc(F)c(-c3cncc(F)c3)c2)C2=NCCCN12 (stereo not drawn) [Example 14, {8-[4-Fluoro-3-(5-fluoropyrimidin-3-yl)phenyl]-8-[4-(trifluoromethoxy)phenyl]-2,3,4,8-tetrahydroimidazo[1,5-a]pyrimidin-6-yl}amine] |  | 94 to 105 | 0.14 |  |  | 65 |
